The source made the active and inactive calls. No cut-off for these calls is given here. Where only a bound is given, the exact number is not on record here.

The target in data set [1] is T1, Tryptophan 2,3-dioxygenase (Homo sapiens, UniProt P48775). As to the kind of experiment: Inhibition of human TDO2 expressed in Escherichia coli BL21-DE3 rosetta cells at pH 6.5 potassium phosphate buffer using L-tryptophan as substrate measured after 15 mins.
For data set [2], the target named is T1, Tryptophan 2,3-dioxygenase. The data set can be described thus: Inhibition of human TDO2 expressed in mouse P815B cells using L-tryptophan as substrate incubated for 7 hrs by UPLC analysis. In kind it is cell-based.
Data set [3] concerns the target T2, Indoleamine 2,3-dioxygenase 1 (Homo sapiens, UniProt P14902). The data set can be described thus: Inhibition of human IDO1 in potassium phosphate buffer at pH 6.5 using L-tryptophan as substrate incubated for 8 mins.
For data set [4], the target named is T2, Indoleamine 2,3-dioxygenase 1. As to the kind of experiment: Inhibition of human IDO1 expressed in mouse P815B cells using L-tryptophan as substrate incubated for 24 hrs by UPLC analysis. In kind it is cell-based.
A short description of data set [5]: Lipophilicity, logKw of compound in methanol and water buffer at pH 2.3 by HPLC-UV analysis. In kind it is physicochemical.
A short description of data set [6]: Metabolic stability in liver microsomes assessed as half life at 10 uM measured upto 24 hrs in the presence of NADPH by UPLC analysis. The class given is ADME, Microsome. (Liver microsomes are a subcellular fraction often used to study metabolism.)
Data set [7] can be described thus: Cytotoxicity against mouse P815B cells assessed as reduction in cell viability measured after 6 hrs by MTS assay. In kind it is functional. The conditions noted are these: read-out: LD50 (the source's name). On the technique in general: Tetrazolium assays rely on reduction of a dye to a coloured formazan, in cell work by metabolically active cells.
Data set [8] is described as follows: Cytotoxicity against mouse P815B cells assessed as reduction in cell viability measured after 24 hrs by MTS assay. In kind it is functional. The note with it: read-out: LD50 (the source's name).
For data set [9], the system named is A 172. As to the kind of experiment: Cytotoxicity against human A 172 cells assessed as reduction in cell viability measured after 6 hrs by MTS assay. The class given is functional. The note with it: read-out: LD50 (the source's name).
The test system of data set [10] is A 172. The data set can be described thus: Cytotoxicity against human A 172 cells assessed as reduction in cell viability measured after 24 hrs by MTS assay. The class given is functional. The conditions noted are these: read-out: LD50 (the source's name).
A short description of data set [11]: Cytotoxicity against HEK293 cells assessed as reduction in cell viability measured after 6 hrs by MTS assay. In kind it is toxicity, cell-based. The note with it: human, read-out: LD50.
Data set [12] can be described thus: Cytotoxicity against HEK293 cells assessed as reduction in cell viability measured after 24 hrs by MTS assay. The note with it: human, read-out: LD50. The class given is toxicity, cell-based.
A short description of data set [13]: Induction of apoptosis in mouse P815B cells assessed as viable cells at 5 uM measured after 24 hrs by Annexin V-FITC/PI staining based flow cytometry method relative to control. The class given is functional. The note with it: read-out: Activity. On the technique in general: In flow cytometry, cells or beads pass a laser one at a time.
Data set [14] is described as follows: Induction of apoptosis in mouse P815B cells assessed as viable cells at 1 uM measured after 24 hrs by Annexin V-FITC/PI staining based flow cytometry method relative to control. The class given is functional. The conditions noted are these: read-out: Activity.
Data set [15] is described as follows: Induction of apoptosis in mouse P815B cells assessed as early apoptotic cells at 1 uM measured after 24 hrs by Annexin V-FITC/PI staining based flow cytometry method relative to control. In kind it is functional.
Data set [16] in a line: Induction of apoptosis in mouse P815B cells assessed as late apoptotic cells at 1 uM measured after 24 hrs by Annexin V-FITC/PI staining based flow cytometry method relative to control. In kind it is functional.
A short description of data set [17]: Induction of apoptosis in mouse P815B cells assessed as necrotic cells at 1 uM measured after 24 hrs by Annexin V-FITC/PI staining based flow cytometry method relative to control. The class given is functional.
A short description of data set [18]: Induction of apoptosis in mouse P815B cells assessed as early apoptotic cells at 5 uM measured after 24 hrs by Annexin V-FITC/PI staining based flow cytometry method relative to control. In kind it is functional.
The nature of data set [19]: Induction of apoptosis in mouse P815B cells assessed as late apoptotic cells at 5 uM measured after 24 hrs by Annexin V-FITC/PI staining based flow cytometry method relative to control. The class given is functional.
Data set [20] is described as follows: Induction of apoptosis in mouse P815B cells assessed as necrotic cells at 5 uM measured after 24 hrs by Annexin V-FITC/PI staining based flow cytometry method relative to control. The class given is functional.
The nature of data set [21]: Induction of apoptosis in mouse P815B cells assessed as viable cells at 10 uM measured after 24 hrs by Annexin V-FITC/PI staining based flow cytometry method relative to control. In kind it is functional. The conditions noted are these: read-out: Activity.
Data set [22] in a line: Induction of apoptosis in mouse P815B cells assessed as early apoptotic cells at 10 uM measured after 24 hrs by Annexin V-FITC/PI staining based flow cytometry method relative to control. The class given is functional.
A short description of data set [23]: Induction of apoptosis in mouse P815B cells assessed as late apoptotic cells at 10 uM measured after 24 hrs by Annexin V-FITC/PI staining based flow cytometry method relative to control. The class given is functional.
Data set [24] in a line: Induction of apoptosis in mouse P815B cells assessed as necrotic cells at 10 uM measured after 24 hrs by Annexin V-FITC/PI staining based flow cytometry method relative to control. In kind it is functional.
Data set [25] can be described thus: Induction of apoptosis in mouse P815B cells assessed as apoptotic cells at 10 uM measured after 6 hrs by Annexin V-FITC/PI staining based flow cytometry method relative to control. In kind it is functional.
A short description of data set [26]: Induction of apoptosis in mouse P815B cells assessed as necrotic cells at 10 uM measured after 6 hrs by Annexin V-FITC/PI staining based flow cytometry method relative to control. The class given is functional.
Data set [27] in a line: Induction of cell cycle arrest in mouse P815B cells assessed as accumulation of cells at G1 phase at 5 uM measured after 24 hrs by PI staining based flow cytometry method (reference value: 42.8%). In kind it is functional.
Data set [28] in a line: Induction of cell cycle arrest in mouse P815B cells assessed as accumulation of cells at S phase at 5 uM measured after 24 hrs by PI staining based flow cytometry method (reference value: 45.0%). In kind it is functional.
A short description of data set [29]: Induction of cell cycle arrest in mouse P815B cells assessed as accumulation of cells at G2 phase at 5 uM measured after 24 hrs by PI staining based flow cytometry method (reference value: 14.6%). In kind it is functional.
The test system of data set [30] is P815B. The data set can be described thus: Induction of ROS generation in mouse P815B cells assessed as increase in H2O2 concentration at high concentration measured upto 6 hrs by bioluminescent ROS-Glo H2O2 assay. In kind it is functional, cell-based.
Data set [31] concerns P815B. As to the kind of experiment: Cytotoxicity against mouse P815B cells assessed as reduction in cell viability at 30 uM measured after 24 hrs by MTS assay. In kind it is functional, cell-based.

T1 sequence (P48775 whole entry): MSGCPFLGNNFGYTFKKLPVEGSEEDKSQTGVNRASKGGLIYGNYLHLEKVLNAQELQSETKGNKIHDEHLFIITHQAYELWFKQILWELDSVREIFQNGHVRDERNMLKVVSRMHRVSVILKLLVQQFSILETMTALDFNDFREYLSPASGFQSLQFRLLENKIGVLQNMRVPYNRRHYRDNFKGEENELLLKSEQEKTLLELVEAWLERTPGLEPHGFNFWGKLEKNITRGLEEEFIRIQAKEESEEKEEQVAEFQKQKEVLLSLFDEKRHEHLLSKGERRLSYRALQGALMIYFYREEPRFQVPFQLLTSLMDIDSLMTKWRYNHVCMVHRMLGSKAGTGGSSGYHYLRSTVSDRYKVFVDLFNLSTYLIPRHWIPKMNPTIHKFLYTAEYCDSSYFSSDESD
T2 sequence (P14902 whole entry): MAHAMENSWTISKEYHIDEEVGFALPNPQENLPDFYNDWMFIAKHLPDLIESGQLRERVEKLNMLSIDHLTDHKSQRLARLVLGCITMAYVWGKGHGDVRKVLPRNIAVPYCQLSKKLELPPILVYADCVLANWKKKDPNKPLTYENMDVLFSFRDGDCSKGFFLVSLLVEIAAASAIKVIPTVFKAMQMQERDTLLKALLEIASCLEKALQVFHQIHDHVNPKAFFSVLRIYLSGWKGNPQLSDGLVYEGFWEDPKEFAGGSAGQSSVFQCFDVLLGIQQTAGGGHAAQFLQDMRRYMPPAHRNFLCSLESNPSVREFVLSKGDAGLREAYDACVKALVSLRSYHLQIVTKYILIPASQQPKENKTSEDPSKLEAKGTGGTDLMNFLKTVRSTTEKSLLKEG

As to `c1ccc2c(-c3ccc4nsnc4c3)c[nH]c2c1`, the IC50 in data set [1] is 3 µM; in data set [2] it was 0.129 µM; in data set [3] it was > 100 µM; in data set [4] it was > 100 µM. Besides, the logKw in data set [5] amounted to 4. In addition, the half-life at 10 µM in data set [6] amounted to 35.6 min. Also, the CC50 in data set [7] was found to be 30 µM; in [8], 10 µM; in the data set on A 172 [9], 30 µM; in the data set with A 172 [10], 30 µM. Moreover, the CC50 at 6 h in data set [11] was > 80 µM. For the same molecule, the CC50 at 24 h in [12] was > 80 µM.
As to `c1ccc2c(-c3ccc4n[se]nc4c3)c[nH]c2c1`, the IC50 in data set [1] is 2.5 µM; in data set [2] it was 0.094 µM; in data set [3], > 100 µM; in [4], > 100 µM. The logKw in data set [5] was 3.5. In data set [6], the half-life at 10 µM was 70.2 min. The viability at 5 µM in data set [13] turned out to be 79.2%. Further, the CC50 is 30 µM in data set [7], 3 µM in [8], 30 µM with A 172 [9] and 30 µM in the data set with A 172 [10]. Also, in [11], the CC50 at 6 h was 30 µM. Further, in [12], the CC50 at 24 h worked out at 10 µM. The viability at 1 µM in data set [14] came out at 81%. Moreover, the Activity in data set [15] worked out at 1.15%; in data set [16] it was 16.6%; in [17], 1.24%; in [18], 5.19%; in data set [19], 14.2%; in data set [20], 1.46%. In addition, the Activity in [22] worked out at 2.64%; in data set [23], 44.1%; in [24], 0.55%; in [25], 30.4%; in data set [26], 27.6%; in [27], 47.3%. For the same molecule, the Activity in data set [28] is 41.3%; in data set [29] it was 11.6%. For the same molecule, in data set [21], the viability at 10 µM is 52.7%. For the same molecule, in the data set with P815B [30], the result was Active.
For the molecule `c1ccc2c(-c3ccc4nonc4c3)c[nH]c2c1`, the IC50 was 3.4 µM in [1], 0.051 µM in [2], > 100 µM in data set [3] and > 100 µM in data set [4]. Besides, the logKw in data set [5] is 4.1. Also, the half-life at 10 µM in data set [6] was 24.6 min. Besides, the CC50 came to 10 µM in data set [7], 10 µM in [8], 30 µM in the data set with A 172 [9] and 30 µM in the data set with A 172 [10]. Also, the CC50 at 6 h in data set [11] was > 80 µM. Also, the CC50 at 24 h in data set [12] is > 80 µM.
`c1ccc2c(-c3cnc4n[se]nc4c3)c[nH]c2c1`: the IC50 is 4.5 µM in data set [1], 0.171 µM in data set [2], > 100 µM in data set [3] and > 100 µM in data set [4]. In addition, the logKw in data set [5] was 2.9. Further, the half-life at 10 µM in data set [6] is 28.3 min. The CC50 in data set [7] was > 80 µM; in [8] it was 30 µM; in the data set with A 172 [9], > 80 µM; in the data set on A 172 [10], > 80 µM. Besides, the CC50 at 6 h in [11] was > 80 µM. Further, the CC50 at 24 h in data set [12] was > 80 µM. Further, the Activity result with P815B [31] is “Toxic”. Besides, the outcome with P815B [30] was Active.
Regarding `c1ccc2c(-c3cnc4nsnc4c3)c[nH]c2c1`, the half-maximal inhibitory concentration (IC50) in [1] is 4.7 µM; in [2] it was 0.082 µM; in [3], > 100 µM; in [4], > 100 µM. The same molecule showed a logKw in data set [5] of 3.3. Moreover, the half-life at 10 µM in data set [6] was found to be 22 min. The CC50 in data set [7] was > 80 µM; in data set [8], 30 µM; with A 172 [9], > 80 µM; with A 172 [10] it was > 80 µM. The CC50 at 6 h in [11] was > 80 µM. Besides, in data set [12], the CC50 at 24 h was > 80 µM. In addition, in the data set with P815B [31], the Activity result is “Toxic”.

By IC50 is commonly meant the concentration that inhibits the measured activity by half. Lower therefore signals inhibition by little substance. One may read the half-life as how long it takes for the measured level to halve.

Values taken from ChEMBL document CHEMBL5143514, “Investigation of chalcogen bioisosteric replacement in a series of heterocyclic inhibitors of tryptophan 2,3-dioxygenase” (Eur J Med Chem, 2022).
